Reference: patent US20220073471A1 (JIANGSU HENGRUI MEDICINE CO., LTD., priority 2019, published 2022)

What was measured:
[1] = molecular target: T1, Nav1.8 ion channel stably expressed on HEK293 cells (Homo sapiens, UniProt Q9Y5Y9); experiment: Inhibitory activity on Nav1.8, manual patch clamp; type: cell-based; conditions: resting, clamped at -80 mV, 1 μM TTX, read-out: IC50 on inhibiting the Nav1.8 channel activity
T1 construct: expressed in transfected cells; host or cells: HEK293
Text: The purpose of the experiment is to investigate the effect of the compounds on Nav1.8 ion channel in an in vitro experiment, wherein the Nav1.8 ion channel is stably expressed on HEK293 cells. After the Nav1.8 current becomes stable, the Nav1.8 currents before and after the administration of the compound are compared so as to obtain the effect of the compound on the Nav1.8 ion channel.
Except for NaOH and KOH used for acid titration and base titration, all the compounds used for formulating the extracellular fluid and intracellular fluid were purchased from Sigma (St. Louis, Mo.). Extracellular fluid (mM): NaCl, 137; KCl, 4; CaCl2), 1.8; MgCl2, 1; HEPES, 10; glucose, 10; pH 7.4 (NaOH titration). Intracellular fluid (mM): aspartic acid, 140; MgCl2, 2; EGTA, 11; HEPES, 10; pH 7.2 (CsOH titration). All solutions of test compound and control compound contained 1 μM TTX.
The test compound was dissolved in dimethyl sulfoxide (DMSO) at a stock concentration of 9 mM. The stock solution of the test compound was dissolved in the extracellular fluid on the day of the test and formulated into the required concentration.
1) The compound was formulated into solutions with specified concentrations, the solutions were added to the pipelines respectively in order from low to high concentration, and the pipelines were marked.
2) The cell was transferred to the perfusion tank. A positive pressure was applied to the electrode. The tip of the electrode touched the cell. The three-way valve of the air extracting device was adjusted to a three-way state. A negative pressure was applied to the electrode, so that a high-resistance seal was formed between the electrode and the cell.
The negative pressure was applied continuously, thereby causing the cell membrane to rupture and forming a current path.
3) After the current for rupturing the cell membrane became stable, perfusion of different concentrations was carried out in sequence. Once the current was stable for at least one minute, perfusion of the next concentration was carried out.
4) The perfusion tank was cleaned. The perfusion tank was rinsed with the drug solutions in order from high to low concentration, and the rinse duration for each concentration of drug solution was 20 seconds. The perfusion tank was finally rinsed with the extracellular fluid for 1 minute.
The cell was clamped at −80 mV. The cell was depolarized to 10 mV with a square wave lasting 10 milliseconds to obtain the Nav1.8 current. This procedure was repeated every 5 seconds. The maximum current caused by the square wave was measured. After the current became stable, the test compound was perfused. After the response became stable, the blocking intensity was calculated.
The data was stored in the computer system for analysis. Data collection and analysis were carried out by pCLAMP 10 (Molecular Devices, Union City, Calif.), and the analysis results were reviewed by the administrator. Stable current means that the current changes within a limited range over time. The magnitude of stable current was used to calculate the effect of the compound at the concentration.

[2] = Pharmacokinetics assay in rats after intragastrical administration; type: in vivo; conditions: both sexes, Sprague-Dawley (SD), rat, plasma, po, 2 mg/kg; for Vd/F: read-out: Apparent distribution volume Vz/F; for AUC: read-out: Area under curve AUC; for bioavailability: read-out: Bioavailability F; for CL/F: read-out: Clearance CL/F; for half-life: read-out: Half-life T½ (converted); for Cmax: read-out: Plasma concentration Cmax; for MRT: read-out: Residence time MRT
Protocol: Rats were used as test animals. The drug concentration in plasma at different time points was determined by LC/MS/MS method after intragastrical administration of the compounds of Example 2, Example 11, Example 12, Example 15, Example 31 and Example 33 to rats. The pharmacokinetic behavior of the compounds of the present disclosure was studied and evaluated in rats.
Twenty-four healthy adult SD rats (half male and half female, equally divided into six groups, four rats per group) were purchased from Shanghai Jiesijie Laboratory Animal Co., LTD.
A certain amount of the test compound was weighed, to which 5% of DMSO, 5% of tween 80 and 90% of normal saline were added to prepare a 0.2 mg/mL colorless, clear and transparent solution.
After an overnight fast, SD rats were intragastrically administered the test compound at an administration dose of 2.0 mg/kg and an administration volume of 10.0 mL/kg.
The rats were intragastrically administered the compounds of Example 2, Example 11, Example 12, Example 15, Example 31 and Example 33. 0.2 ml of blood was taken from the orbit before the administration and at 0.5, 1.0, 2.0, 4.0, 6.0, 8.0, 11.0 and 24.0 hours after the administration. The samples were stored in heparinized tubes, and centrifuged for 10 minutes at 10000 rpm and 4° C. to separate the blood plasma. The plasma samples were stored at −20° C. The rats were fed 2 hours after the administration.
The content of the test compound in the plasma of rats after intragastrical administration of the test compound at different concentrations was determined: 25 μL of rat plasma at each time point after the administration was taken, to which 30 μL of the internal standard solution and 175 μL of acetonitrile were added. The resulting solution was vortex-mixed for 5 minutes, and centrifuged for 10 minutes (3700 rpm). 0.5 μL of the supernatant was taken from the plasma samples for LC/MS/MS analysis.

T1 sequence (Q9Y5Y9 whole entry): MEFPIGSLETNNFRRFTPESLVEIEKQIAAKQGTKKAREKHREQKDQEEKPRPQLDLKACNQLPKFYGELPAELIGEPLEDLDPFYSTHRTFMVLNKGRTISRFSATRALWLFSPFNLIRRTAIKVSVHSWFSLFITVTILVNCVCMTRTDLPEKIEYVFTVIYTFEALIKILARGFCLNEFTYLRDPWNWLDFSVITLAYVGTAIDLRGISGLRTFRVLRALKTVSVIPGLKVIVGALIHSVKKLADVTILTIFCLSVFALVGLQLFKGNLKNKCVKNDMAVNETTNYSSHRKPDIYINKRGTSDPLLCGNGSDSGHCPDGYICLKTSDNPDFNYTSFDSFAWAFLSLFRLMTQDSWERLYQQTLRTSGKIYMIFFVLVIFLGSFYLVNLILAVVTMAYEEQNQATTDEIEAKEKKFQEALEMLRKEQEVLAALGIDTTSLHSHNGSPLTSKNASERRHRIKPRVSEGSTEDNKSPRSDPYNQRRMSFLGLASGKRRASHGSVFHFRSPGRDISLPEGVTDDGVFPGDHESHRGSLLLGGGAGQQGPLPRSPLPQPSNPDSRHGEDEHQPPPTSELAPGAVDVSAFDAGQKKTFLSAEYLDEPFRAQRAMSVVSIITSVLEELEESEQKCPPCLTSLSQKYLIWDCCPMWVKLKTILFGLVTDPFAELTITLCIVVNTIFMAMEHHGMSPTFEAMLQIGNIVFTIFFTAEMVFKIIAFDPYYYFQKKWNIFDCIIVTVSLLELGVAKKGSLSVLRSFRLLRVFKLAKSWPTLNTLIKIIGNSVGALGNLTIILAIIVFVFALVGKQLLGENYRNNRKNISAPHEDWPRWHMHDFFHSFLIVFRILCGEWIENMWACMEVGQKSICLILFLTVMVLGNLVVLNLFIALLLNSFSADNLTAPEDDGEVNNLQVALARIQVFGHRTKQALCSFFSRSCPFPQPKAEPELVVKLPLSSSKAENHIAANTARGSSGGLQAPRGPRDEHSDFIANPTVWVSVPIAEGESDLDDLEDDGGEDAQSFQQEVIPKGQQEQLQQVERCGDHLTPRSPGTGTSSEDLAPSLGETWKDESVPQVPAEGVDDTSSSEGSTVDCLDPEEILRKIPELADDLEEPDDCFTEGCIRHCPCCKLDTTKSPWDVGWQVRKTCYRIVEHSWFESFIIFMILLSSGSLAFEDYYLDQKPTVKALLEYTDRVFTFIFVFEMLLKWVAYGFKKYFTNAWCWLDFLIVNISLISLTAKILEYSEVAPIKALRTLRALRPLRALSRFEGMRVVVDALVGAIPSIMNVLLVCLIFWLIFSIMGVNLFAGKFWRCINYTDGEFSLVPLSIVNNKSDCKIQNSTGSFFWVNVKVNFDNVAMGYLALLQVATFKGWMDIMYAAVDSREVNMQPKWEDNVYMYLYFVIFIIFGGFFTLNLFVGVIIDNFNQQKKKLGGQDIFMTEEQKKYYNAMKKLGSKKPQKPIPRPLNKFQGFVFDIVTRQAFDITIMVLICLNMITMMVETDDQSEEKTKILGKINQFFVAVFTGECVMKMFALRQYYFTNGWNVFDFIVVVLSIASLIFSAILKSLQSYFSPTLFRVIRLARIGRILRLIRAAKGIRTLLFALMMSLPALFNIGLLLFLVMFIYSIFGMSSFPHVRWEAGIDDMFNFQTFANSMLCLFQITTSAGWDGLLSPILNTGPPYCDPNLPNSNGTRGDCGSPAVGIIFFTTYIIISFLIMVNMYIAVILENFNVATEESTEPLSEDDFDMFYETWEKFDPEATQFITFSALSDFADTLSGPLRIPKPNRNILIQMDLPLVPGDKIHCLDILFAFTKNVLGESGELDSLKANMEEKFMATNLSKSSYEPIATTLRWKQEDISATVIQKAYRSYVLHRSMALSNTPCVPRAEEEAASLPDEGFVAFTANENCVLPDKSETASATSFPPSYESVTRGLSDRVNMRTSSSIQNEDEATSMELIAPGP

Cc1cc(F)ccc1Oc1cc(C(F)(F)F)c(Cl)cc1C(=O)Nc1cn[nH]c(=O)c1 [Example 2, 5-Chloro-2-(4-fluoro-2-methylphenoxy)-N-(6-oxo-1,6-dihydropyridazin-4-yl)-4-(trifluoromethyl)benzamide]
IC50 [1]: 1.3 nM
Vd/F [2]: 4.71 ± 1.29 L/kg
AUC [2]: 5960 ± 4280 ng·h/mL
bioavailability [2]: 149%
CL/F [2]: 6.24 ± 6.29 mL/min/kg
half-life [2]: 47 ± 54.6 h
Cmax [2]: 399 ± 153 ng/mL
MRT [2]: 68.2 ± 78.3 h

COc1cc(F)ccc1Oc1cc(C(F)(F)F)c(Cl)cc1C(=O)Nc1cn[nH]c(=O)c1 [Example 11, 5-Chloro-2-(4-fluoro-2-methoxyphenoxy)-N-(6-oxo-1,6-dihydropyridazin-4-yl)-4-(trifluoromethyl)benzamide]
IC50 [1]: 1.3 nM
Vd/F [2]: 5.33 ± 0.72 L/kg
AUC [2]: 1230 ± 621 ng·h/mL
bioavailability [2]: 98%
CL/F [2]: 32.3 ± 15.2 mL/min/kg
half-life [2]: 2.3 ± 1.14 h
Cmax [2]: 218 ± 103 ng/mL

O=C(Nc1cn[nH]c(=O)c1)c1cc(Cl)c(C(F)(F)F)cc1Oc1ccc(F)cc1OC1CC1 [Example 12, 5-Chloro-2-(2-cyclopropoxy-4-fluorophenoxy)-N-(6-oxo-1,6-dihydropyridazin-4-yl)-4-(trifluoromethyl)benzamide]
IC50 [1]: 0.26 nM
Vd/F [2]: 4.17 ± 0.587 L/kg
AUC [2]: 5980 ± 1130 ng·h/mL
bioavailability [2]: 111%
CL/F [2]: 4.3 ± 1.65 mL/min/kg
half-life [2]: 13.2 ± 7.8 h
Cmax [2]: 435 ± 64 ng/mL
MRT [2]: 19.8 ± 10.4 h

O=C(Nc1cn[nH]c(=O)c1)c1cc(Cl)c(C(F)(F)F)cc1Oc1ccc(F)cc1OC(F)(F)F [Example 15, 5-Chloro-2-(4-fluoro-2-(trifluoromethoxy)phenoxy)-N-(6-oxo-1,6-dihydropyridazin-4-yl)-4-(trifluoromethyl)benzamide]
IC50 [1]: 4.7 nM
Vd/F [2]: 7.15 ± 0.682 L/kg
AUC [2]: 5690 ± 552 ng·h/mL
bioavailability [2]: 94%
CL/F [2]: 1.46 ± 0.11 mL/min/kg
half-life [2]: 56.7 ± 6.6 h
Cmax [2]: 295 ± 44 ng/mL
MRT [2]: 82.4 ± 10.2 h

O=C(Nc1cn[nH]c(=O)c1)c1cc(Cl)c(C(F)(F)F)cc1Oc1ccc(F)cc1C1CC1 [Example 31, 5-Chloro-2-(2-cyclopropyl-4-fluorophenoxy)-N-(6-oxo-1,6-dihydropyridazin-4-yl)-4-(trifluoromethyl)benzamide]
IC50 [1]: 0.94 nM
Vd/F [2]: 5.44 ± 0.705 L/kg
AUC [2]: 5620 ± 1230 ng·h/mL
bioavailability [2]: 66%
CL/F [2]: 3.77 ± 2.7 mL/min/kg
half-life [2]: 33.3 ± 34.8 h
Cmax [2]: 360 ± 65 ng/mL
MRT [2]: 48.3 ± 50.3 h

Cc1cc(F)ccc1Oc1cc(C(F)(F)F)c(Br)cc1C(=O)Nc1cn[nH]c(=O)c1 [Example 33, 5-Bromo-2-(4-fluoro-2-methylphenoxy)-N-(6-oxo-1,6-dihydropyridazin-4-yl)-4-(trifluoromethyl)benzamide]
IC50 [1]: 0.86 nM
Vd/F [2]: 3.99 ± 0.788 L/kg
AUC [2]: 5550 ± 3020 ng·h/mL
bioavailability [2]: 99%
CL/F [2]: 6.4 ± 5.57 mL/min/kg
half-life [2]: 18.6 ± 17.5 h
Cmax [2]: 382 ± 88 ng/mL
MRT [2]: 27.7 ± 24.2 h

[2H]C([2H])([2H])Oc1cc(F)ccc1Oc1cc(C(F)(F)F)c(Cl)cc1C(=O)Nc1cn[nH]c(=O)c1 [Example 35, 5-Chloro-2-(4-fluoro-2-(methoxy-d3)phenoxy)-N-(6-oxo-1,6-dihydropyridazin-4-yl)-4-(trifluoromethyl)benzamide]
IC50 [1]: 0.54 nM
Vd/F [2]: 5.01 ± 0.875 L/kg
AUC [2]: 4330 ± 910 ng·h/mL
bioavailability [2]: 107%
CL/F [2]: 7.93 ± 1.47 mL/min/kg
half-life [2]: 7.5 ± 1.92 h
Cmax [2]: 392 ± 43 ng/mL
MRT [2]: 10.6 ± 2.3 h

O=C(Nc1cn[nH]c(=O)c1)c1cc(Cl)c(C(F)(F)F)cc1Oc1ccc(F)cc1Br [Example 43, 2-(2-Bromo-4-fluorophenoxy)-5-chloro-N-(6-oxo-1,6-dihydropyridazin-4-yl)-4-(trifluoromethyl)benzamide]
IC50 [1]: 3.36 nM

[2H]C([2H])([2H])c1cc(F)ccc1Oc1cc(C(F)(F)F)c(Cl)cc1C(=O)Nc1cn[nH]c(=O)c1 [Example 44, 5-Chloro-2-(4-fluoro-2-(methyl-d3)phenoxy)-N-(6-oxo-1,6-dihydropyridazin-4-yl)-4-(trifluoromethyl)benzamide]
IC50 [1]: 4.04 nM

O=C(Nc1cn[nH]c(=O)c1)c1cc(Cl)c(C(F)(F)F)cc1Oc1ccc(F)cc1Cl [Example 45, 5-Chloro-2-(2-chloro-4-fluorophenoxy)-N-(6-oxo-1,6-dihydropyridazin-4-yl)-4-(trifluoromethyl)benzamide]
IC50 [1]: 5.08 nM

O=C(Nc1cn[nH]c(=O)c1)c1cc(Cl)c(C(F)(F)F)cc1Oc1ccc(F)cc1F [Example 46, 5-Chloro-2-(2,4-difluorophenoxy)-N-(6-oxo-1,6-dihydropyridazin-4-yl)-4-(trifluoromethyl)benzamide]
IC50 [1]: 8.95 nM
